Consider 16 molecules from patent US7662825B2, “N-pyrazinyl-phenylsulphonamides and their use in the treatment of chemokine mediated diseases” (AstraZeneca AB, priority 2002, dated 2010).

SMILES strings stand for the structures.

`COc1nc(-c2cnccn2)cnc1NS(=O)(=O)c1cccc(Cl)c1Cl` [Example 72, 2,3-Dichloro-N-[6-methoxy-5-([2,2′]bipyrazinylyl)]benzenesulphonamide]: the melting point (commonly the temperature of the solid-liquid transition) lay within 199 to 200 °C.
For `O=S(=O)(Nc1nc(Cl)cnc1OCc1cccnc1)c1cccc(Cl)c1Cl` [Example 99, 2,3-Dichloro-N-[6-chloro-3-(3-pyridinylmethoxy)-2-pyrazinyl]benzenesulphonamide] the value was 203 to 204 °C; for `COc1nc(C)c(C)nc1NS(=O)(=O)c1cccc(Cl)c1Cl` [Example 65, 2,3-Dichloro-N-(3-methoxy-5,6-dimethyl-2-pyrazinyl)benzenesulphonamide], 165 to 166 °C.
For `COc1nc(C)cnc1NS(=O)(=O)c1ccc(Cl)cc1` [Example 46, 4-Chloro-N-(3-methoxy-5-methyl-2-pyrazinyl)benezenesulphonamide] the value was 155 to 156 °C; for `COc1nc(SCCN)c(Cl)nc1NS(=O)(=O)c1cccc(Cl)c1Cl` [Example 116, N-{5-[(2-Aminoethyl)thio]-6-chloro-3-methoxy-2-pyrazinyl}-2,3-dichlorobenzenesulfonamide], 185 to 190 °C.
`Cc1nc(COc2nc(Cl)cnc2NS(=O)(=O)c2cccc(Cl)c2Cl)co1` [Example 144, 2,3-Dichloro-N-{5-chloro-3-[(2-methyl-4-oxazolyl)methoxy]-2-pyrazinyl}benzenesulphonamide] registered a melting point of 172 to 173 °C.
With `COc1nc(Br)cnc1NS(=O)(=O)c1ccc(F)c(Cl)c1Cl` [Example 185, N-(5-Bromo-3-methoxypyrazinyl)-2,3-dichloro-4-fluorobenzenesulphonamide] the figure was 208 to 211 °C; with `COc1nc(Cl)c(Cl)nc1NS(=O)(=O)c1cccc(Cl)c1Cl` [Example 59, 2,3-Dichloro-N-(5,6-dichloro-3-methoxy-2-pyrazinyl)benzenesulphonamide], 172 to 173 °C.
The molecule `O=S(=O)(Nc1ncc(Cl)nc1OCc1cccnc1)c1cccc(Cl)c1Cl` [Example 36, N-[5-Chloro-3-(3-pyridinylmethoxy)-2-pyrazinyl]-2,3-dichlorobenzenesulphonamide] showed a melting point of 200 to 204 °C.
`COc1nc(Cl)c(Cl)nc1NS(=O)(=O)c1ccccc1Cl` [Example 60, 2-Chloro-N-(5,6-dichloro-3-methoxy-2-pyrazinyl)benzenesulphonamide]: the melting point fell in the range of 217 to 218 °C.
With `COc1nc(Cl)c(Cl)nc1NS(=O)(=O)c1cccc(Cl)c1C` [Example 58, 3-Chloro-N-(5,6-dichloro-3-methoxy-2-pyrazinyl)-2-methylbenzenesulphonamide] the figure was 177 to 178 °C; with `NC(=O)c1cnc(NS(=O)(=O)c2cccc(Cl)c2Cl)c(OCc2cccnc2)n1` [Example 135, 5-{[(2,3-Dichlorophenyl)sulphonyl]amino}-6-(3-pyridinylmethoxy)-2-pyrazinecarboxamide], 174 to 178 °C; with `CC(Oc1nc(Cl)cnc1NS(=O)(=O)c1cccc(Cl)c1Cl)C1CC1` (stereo not shown) [Example 208], 161 to 162 °C.
`COc1nc(Cl)cnc1NS(=O)(=O)c1ccc(Cl)cc1Cl` [Example 54, N-(5-Chloro-3-methoxy-2-pyrazinyl)-2,4-dichlorobenzenesulphonamide] displayed a melting point of 170 to 171 °C.
For `COc1nc(Cl)cnc1NS(=O)(=O)c1cccc(Cl)c1C` [Example 50, 3-Chloro-N-(5-chloro-3-methoxy-2-pyrazinyl)-2-methylbenzenesulphonamide] the value was 150 to 152 °C; for `Cc1cnc(NS(=O)(=O)c2cccc(Cl)c2Cl)c(OCc2cccnc2)n1` [Example 24, 2,3-Dichloro-N-[5-methyl-3-(3-pyridinylmethoxy)-2-pyrazinyl]benzenesulphonamide], 160 to 161 °C.
